This is an account of results in patent US9308253B2, “Cancer immunotherapy” (The Johns Hopkins University, priority 2011, dated 2016).

One series concerns TLR4. The following applies: cited from earlier work.
The next series concerns B16 melanoma. Nature of the series: Tumor treatment assay, palpable B16 model. In kind it is in vivo, C57BL/6 mice. Particulars: palpable B16, single subcutaneous treatment in contralateral limb.
For series [1] the following is noted: human, in vivo; cited from earlier work.

Method for B16 melanoma: IDC-1005 was incubated with irradiated GVAX cells at 4 deg C. for 0.5-2, hours prior to inoculation. GVAX formulated with IDC-1005 is labeled as TEGVAX.
Tumor treatment assay: C57BL/6 mice were injected with 1-5×10^4 B16 in the footpads. Once palpable tumor developed (5-10 days), 100 μl of 10^6 B16 GVAX formulated with or without IDC-1005 were injected subcutaneously into the contralateral limb. The control groups were injected with vehicle. For all these experiments, 10 mice were used per group. […] For all the vaccines, GM-CSF was titered to ensure that GM-CSF expression level ranged from 50-500 ng/10^6 Cells/24 hours. Tumor was measured daily.

Take `CCCCCCCCCCCCCC(=O)O[C@H](CCCCCCCCCCC)CC(=O)O[C@@H]1[C@@H](NC(=O)C[C@H](CCCCCCCCCCC)OC(=O)CCCCCCCCCCCCC)[C@H](OC[C@H]2O[C@H](O)[C@H](NC(=O)C[C@H](O)CCCCCCCCCCC)[C@@H](OC(=O)C[C@H](O)CCCCCCCCCCC)[C@@H]2O)O[C@H](CO)[C@H]1OP(=O)(O)O` [GLA, glucopyranosyl lipid A]: in the series on TLR4 (murine and human dendritic cells, in vivo and in vitro, versus MPL), the “TH1 type cytokines on activation of dendritic cells” value is “more potent in terms of increasing multiple TH1 type cytokines”. Besides, the TLR4 agonist strength result with TLR4 (versus monophosphoryl lipid A) is recorded as “stronger TLR4 agonist than the monophosphyl lipid A”. Besides, the “tumor growth rate / in vivo anti-tumor response” value in the series with B16 melanoma is given as “no in vivo anti-tumor effects”.

For `CCOCc1nc2c(N)nc3ccccc3c2n1CC(C)(C)O` [R848, resiquimod], the “safety / toxicity in patients” value in series [1] is on record as “passed phase 1 trials for safety”.

As to ipilimumab: anti-CTLA-4 antibody, the “safety / toxicity in patients” value in series [1] is “grade 3-4 toxicity”.
